# Assay results reported in patent US9884868B2, “TGF-beta inhibitors” (Rigel Pharmaceuticals, Inc., priority 2015, dated 2018).
# Where a name gives a salt, the structure may show the parent alone. Read-outs that look alike come from different tables or passages of the source.
# Molecular target: HIS-TGF-βR1 T204D (Homo sapiens (Human), UniProt P36897, T204D)
# Assay: HTRF probe displacement assay with HIS-TGF-βR1 T204D
# [1] = read-out: TGFbr1 IC50, HTRF probe displacement, 1 nM HIS-TGF-βR1 T204D, 1 hour at room temperature
# Chain of HIS-TGF-βR1 T204D (P36897 34-503 T204D): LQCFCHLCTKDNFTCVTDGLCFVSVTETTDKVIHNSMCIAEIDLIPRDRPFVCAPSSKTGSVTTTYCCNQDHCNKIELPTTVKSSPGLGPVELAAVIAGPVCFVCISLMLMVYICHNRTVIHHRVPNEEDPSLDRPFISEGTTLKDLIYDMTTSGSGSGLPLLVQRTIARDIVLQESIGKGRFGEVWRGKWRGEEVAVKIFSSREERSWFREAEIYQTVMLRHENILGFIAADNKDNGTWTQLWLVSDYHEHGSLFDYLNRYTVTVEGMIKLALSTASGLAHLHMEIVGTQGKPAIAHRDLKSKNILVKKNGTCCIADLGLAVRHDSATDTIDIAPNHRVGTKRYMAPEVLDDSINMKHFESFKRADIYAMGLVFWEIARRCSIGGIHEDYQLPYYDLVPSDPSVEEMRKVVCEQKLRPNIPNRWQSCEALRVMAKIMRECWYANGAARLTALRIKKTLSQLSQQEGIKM
Structure (SMILES),IC50 [1] [nM],IC50 [nM]
"C[C@H](O)Cn1cnc(-c2ccc(F)cc2)c1-c1ccc2ncc(C#N)n2c1 [89′, (S)-6-(4-(4-fluorophenyl)-1-(2-hydroxypropyl)-1H-imidazol-5-yl)imidazo[1,2-a]pyridine-3-carbonitrile]",127,–
"N#Cc1cnc2ccc(-c3c(-c4cc(Cl)cc(Cl)c4)ncn3CC(F)F)nn12 [238′, 6-(4-(3,5-dichlorophenyl)-1-(2,2-difluoroethyl)-1H-imidazol-5-yl)imidazo[1,2-b]pyridazine-3-carbonitrile]",39.7,–
"Nc1nc(-c2ccc(F)cc2)c(-c2ccc3nccn3c2)n1CC(F)F [Example 296′, 1-(2,2-difluoroethyl)-4-(4-fluorophenyl)-5-(imidazo[1,2-a]pyridin-6-yl)-1H-imidazol-2-amine, 2 HCl]",109,–
"CCn1cnc(-c2ccc(F)cc2)c1-c1ccc2ncc(C#N)n2c1 [73′, 6-(1-ethyl-4-(4-fluorophenyl)-1H-imidazol-5-yl)imidazo[1,2-a]pyridine-3-carbonitrile]",36.2,–
"N#Cc1cnc2ccc(-c3c(-c4ccc(F)cc4)ncn3C[C@@H](O)CO)cn12 [71′, (R)-6-(1-(2,3-dihydroxypropyl)-4-(4-fluorophenyl)-1H-imidazol-5-yl)imidazo[1,2-a]pyridine-3-carbonitrile]",170,–
"N#Cc1cnc2ccc(-c3c(-c4ccc(O)cc4)ncn3CC(F)F)nn12 [250′, 6-(1-(2,2-difluoroethyl)-4-(4-hydroxyphenyl)-1H-imidazol-5-yl)imidazo[1,2-b]pyridazine-3-carbonitrile]",136,–
"Fc1ccc(-c2ncn([C@H]3CCC(F)(F)C3)c2-c2ccc3nccn3c2)cc1Cl [186′, (S)-6-(4-(3-chloro-4-fluorophenyl)-1-(3,3-difluorocyclopentyl)-1H-imidazol-5-yl)imidazo[1,2-a]pyridine]",228,–
"N#Cc1cnc2ccc(-c3c(-c4ccc(F)cc4)ncn3CCCF)cn12 [84′, 6-(4-(4-fluorophenyl)-1-(3-fluoropropyl)-1H-imidazol-5-yl)imidazo[1,2-a]pyridine-3-carbonitrile]",121,–
"N#Cc1cnc2ccc(-c3c(-c4ccc(F)cc4)ncn3C[C@H](O)CO)cn12 [92′, (S)-6-(1-(2,3-dihydroxypropyl)-4-(4-fluorophenyl)-1H-imidazol-5-yl)imidazo[1,2-a]pyridine-3-carbonitrile]",266,–
"CCC(CO)n1cnc(-c2ccc(F)cc2)c1-c1ccc2ncc(C#N)n2c1 (centres unmarked) [83′, 6-(4-(4-fluorophenyl)-1-(1-hydroxybutan-2-yl)-1H-imidazol-5-yl)imidazo[1,2-a]pyridine-3-carbonitrile]",189,–
"N#Cc1cnc2ccc(-c3c(-c4ccc(F)c(Cl)c4)ncn3CC3CC3)cn12 [96′, 6-(4-(3-chloro-4-fluorophenyl)-1-(cyclopropylmethyl)-1H-imidazol-5-yl)imidazo[1,2-a]pyridine-3-carbonitrile]",94.4,–
"CC(O)CCn1cnc(-c2ccc(F)cc2)c1-c1ccc2ncc(C#N)n2c1 (centres unmarked) [69′, 6-(4-(4-fluorophenyl)-1-(3-hydroxybutyl)-1H-imidazol-5-yl)imidazo[1,2-a]pyridine-3-carbonitrile]",151,–
"C[C@@H](O)Cn1cnc(-c2ccc(F)cc2)c1-c1ccc2ncc(C#N)n2c1 [68′, (R)-6-(4-(4-fluorophenyl)-1-(2-hydroxypropyl)-1H-imidazol-5-yl)imidazo[1,2-a]pyridine-3-carbonitrile]",301,–
"Fc1ccc(-c2ncn(CC(F)F)c2-c2ccn3ncnc3c2)cc1 [Example 282′, 7-(1-(2,2-difluoroethyl)-4-(4-fluorophenyl)-1H-imidazol-5-yl)-[1,2,4]triazolo[1,5-a]pyridine]",12.9,–
"N#Cc1cnc2ccc(-c3c(-c4ccc(F)cc4)ncn3C3CC(F)(F)C3)cn12 [66′, 6-(1-(3,3-difluorocyclobutyl)-4-(4-fluorophenyl)-1H-imidazol-5-yl)imidazo[1,2-a]pyridine-3-carbonitrile]",418,–
"N#Cc1cnc2ccc(-c3c(-c4ccc(F)cc4)ncn3C3CC3)cn12 [77′, 6-(1-cyclopropyl-4-(4-fluorophenyl)-1H-imidazol-5-yl)imidazo[1,2-a]pyridine-3-carbonitrile]",19.8,–
"NC(=O)c1cnc2ccc(-c3c(-c4ccc(F)c(Cl)c4)ncn3[C@H]3C[C@@H](O)C3)nn12 [140′, 6-(4-(3-chloro-4-fluorophenyl)-1-((1s,3s)-3-hydroxycyclobutyl)-1H-imidazol-5-yl)imidazo[1,2-b]pyridazine-3-carboxamide]",–,2.8

# Next, values leading:
IC50 [1] [nM],IC50 [nM],Structure (SMILES)
7.9,–,"N#Cc1cc(-c2ncn(CC(F)F)c2-c2ccc3ncc(C#N)n3n2)ccc1F [266′, 6-(4-(3-cyano-4-fluorophenyl)-1-(2,2-difluoroethyl)-1H-imidazol-5-yl)imidazo[1,2-b]pyridazine-3-carbonitrile]"
1.2,–,"Nc1cnc2ccc(-c3c(-c4ccc(F)cc4)ncn3CC(F)F)cn12 [284D′, 6-(1-(2,2-difluoroethyl)-4-(4-fluorophenyl)-1H-imidazol-5-yl)imidazo[1,2-a]pyridin-3-amine]"
2.5,–,"CC(C)OCCn1cnc(-c2ccc(F)cc2)c1-c1ccc2ncc(C(N)=O)n2n1 [124′, 6-(4-(4-fluorophenyl)-1-(2-isopropoxyethyl)-1H-imidazol-5-yl)imidazo[1,2-b]pyridazine-3-carboxamide]"
1.5,–,"N#Cc1cnc2ccc(-c3c(-c4ccc(F)c(Cl)c4)ncn3C3CCOC3)nn12 (centres unmarked) [46′, 6-(4-(3-chloro-4-fluorophenyl)-1-(tetrahydrofuran-3-yl)-1H-imidazol-5-yl)imidazo[1,2-b]pyridazine-3-carbonitrile]"
0.7,–,"CC(C)n1cnc(-c2ccc(F)cc2)c1-c1ccc2ncc(C(N)=O)n2n1 [135′, 6-(4-(4-fluorophenyl)-1-isopropyl-1H-imidazol-5-yl)imidazo[1,2-b]pyridazine-3-carboxamide]"
12.4,–,"NC(=O)c1cnc2ccc(-c3c(-c4ccc(F)cc4)ncn3C34CC(C3)C4)nn12 [136′, 6-(1-(bicyclo[1.1.1]pentan-1-yl)-4-(4-fluorophenyl)-1H-imidazol-5-yl)imidazo[1,2-b]pyridazine-3-carboxamide]"
1.8,–,"N#Cc1cnc2ccc(-c3c(-c4ccc(F)c(Cl)c4)ncn3C[C@@H]3CCCO3)nn12 [42′, (S)-6-(4-(3-chloro-4-fluorophenyl)-1-((tetrahydrofuran-2-yl)methyl)-1H-imidazol-5-yl)imidazo[1,2-b]pyridazine-3-carbonitrile]"
0.8,–,"NC(=O)c1cnc2ccc(-c3c(-c4ccc(F)cc4)ncn3C3CCCC3)cn12 [159′, 6-(1-cyclopentyl-4-(4-fluorophenyl)-1H-imidazol-5-yl)imidazo[1,2-a]pyridine-3-carboxamide]"
9.9,–,"Cn1cnc(-c2ccc(F)cc2)c1-c1ccc2ncc(C#N)n2n1 [19′, 6-(4-(4-fluorophenyl)-1-methyl-1H-imidazol-5-yl)imidazo[1,2-b]pyridazine-3-carbonitrile]"
1.9,–,"CC(C)(F)Cn1cnc(-c2ccc(F)cc2)c1-c1ccc2ncc(C#N)n2n1 [23′, 6-(1-(2-fluoro-2-methylpropyl)-4-(4-fluorophenyl)-1H-imidazol-5-yl)imidazo[1,2-b]pyridazine-3-carbonitrile]"
0.9,–,"N#Cc1cnc2ccc(-c3c(-c4ccc(F)c(Cl)c4)ncn3[C@H]3C[C@@H](O)C3)nn12 [Example 39′, 6-(4-(3-chloro-4-fluorophenyl)-1-((cis)-3-hydroxycyclobutyl)-1H-imidazol-5-yl)imidazo[1,2-b]pyridazine-3-carbonitrile]"
1.2,–,"N#Cc1cnc2ccc(-c3c(-c4ccc(F)c(Cl)c4)ncn3CCCCl)nn12 [44′, 6-(4-(3-chloro-4-fluorophenyl)-1-(3-chloropropyl)-1H-imidazol-5-yl)imidazo[1,2-b]pyridazine-3-carbonitrile]"
0.7,–,"NC(=O)c1cnc2ccc(-c3c(-c4ccc(F)c(Cl)c4)ncn3CCO)nn12 [138′, 6-(4-(3-chloro-4-fluorophenyl)-1-(2-hydroxyethyl)-1H-imidazol-5-yl)imidazo[1,2-b]pyridazine-3-carboxamide]"
2.2,–,"NC(=O)c1cnc2ccc(-c3c(-c4ccc(F)c(Cl)c4)ncn3C[C@@H]3CCCO3)nn12 [145′, (S)-6-(4-(3-chloro-4-fluorophenyl)-1-((tetrahydrofuran-2-yl)methyl)-1H-imidazol-5-yl)imidazo[1,2-b]pyridazine-3-carboxamide]"
0.5,–,"NC(=O)c1cnc2ccc(-c3c(-c4ccc(F)cc4)ncn3C3CCC3)cn12 [172′, 6-(1-cyclobutyl-4-(4-fluorophenyl)-1H-imidazol-5-yl)imidazo[1,2-a]pyridine-3-carboxamide]"
2.3,–,"Cn1cnc(-c2ccc(F)c(Cl)c2)c1-c1ccc2ncc(C#N)n2n1 [50′, 6-(4-(3-chloro-4-fluorophenyl)-1-methyl-1H-imidazol-5-yl)imidazo[1,2-b]pyridazine-3-carbonitrile]"
0.8,–,"CCn1cnc(-c2ccc(F)cc2)c1-c1ccc2ncc(C(N)=O)n2c1 [160′, 6-(1-ethyl-4-(4-fluorophenyl)-1H-imidazol-5-yl)imidazo[1,2-a]pyridine-3-carboxamide]"
1.1,–,"CC(C)CCn1cnc(-c2ccc(F)c(Cl)c2)c1-c1ccc2ncc(C(N)=O)n2n1 [148′, 6-(4-(3-chloro-4-fluorophenyl)-1-isopentyl-1H-imidazol-5-yl)imidazo[1,2-b]pyridazine-3-carboxamide]"
2.2,–,"N#Cc1cnc2ccc(-c3c(-c4ccc(F)cc4)ncn3CCC(F)F)nn12 [20′, 6-(1-(3,3-difluoropropyl)-4-(4-fluorophenyl)-1H-imidazol-5-yl)imidazo[1,2-b]pyridazine-3-carbonitrile]"
0.4,–,"CC(C)n1cnc(-c2ccc(F)cc2)c1-c1ccc2ncc(C#N)n2n1 [24′, 6-(4-(4-fluorophenyl)-1-isopropyl-1H-imidazol-5-yl)imidazo[1,2-b]pyridazine-3-carbonitrile]"
2.2,–,"Fc1cc(F)c(-c2ncn(CC(F)F)c2-c2ccc3nccn3c2)cc1Cl [223′, 6-(4-(5-chloro-2,4-difluorophenyl)-1-(2,2-difluoroethyl)-1H-imidazol-5-yl)imidazo[1,2-a]pyridine]"
